Measurements from patent publication US9176064B2, “Bisubstrate fluorescent probes for protein kinase CK2” (University of Tartu, priority 2012, dated 2015).
Values belong to the compound of their own block, whether it stands above or below them. Where a SMILES comes first, the peptide text is derived from it. [ ]: non-standard residue; d: D form. The star is where a group is joined. X2 = CN(C)c1ccc2c(-c3ccc(C(=O)*)cc3C(=O)[O-])c3ccc(=[N+](C)C)cc-3oc2c1; X1 = O=C(CCCCCCCn1cnc2c(Br)c(Br)c(Br)c(Br)c21)*

Columns and labels:
[1] = target: T1, catalytic subunit of CK2 (CK2α) (Homo sapiens, UniProt P68400); assay: Competition experiment: displacement of fluorescent probe VI from CK2α; type: binding; details: for Kd: calculated from I50 and KD of the probe
T1 sequence (P68400 1-335 limits assumed): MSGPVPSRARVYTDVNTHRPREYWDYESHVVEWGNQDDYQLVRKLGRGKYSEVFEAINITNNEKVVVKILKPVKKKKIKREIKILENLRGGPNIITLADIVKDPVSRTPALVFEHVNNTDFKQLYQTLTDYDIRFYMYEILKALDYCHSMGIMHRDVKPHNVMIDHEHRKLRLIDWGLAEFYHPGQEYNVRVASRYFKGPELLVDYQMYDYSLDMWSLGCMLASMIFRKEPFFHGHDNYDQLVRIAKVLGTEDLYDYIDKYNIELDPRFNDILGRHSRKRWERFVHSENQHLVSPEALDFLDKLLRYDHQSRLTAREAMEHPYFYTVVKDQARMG

[2] = target: T1, catalytic subunit of CK2 (CK2α); assay: Titration of fluorescent probe with CK2α (fluorescence anisotropy); type: binding
Procedure: The binding of the fluorescent probe of formula VI to the catalytic subunit of protein kinase CK2 (CK2α) was studied at 0.2 nM concentration of the probe and 2-fold dilutions of CK2α in a buffer containing 50 mM HEPES (pH 7.5), 150 mM NaCl, 5 mM DTT, 0.1 mM EDTA and 0.005% tween 20 in 20 μl volumes in 384-well microplate. […] The change in fluorescence anisotropy vs kinase concentration was plotted and KD value was calculated by the application of nonlinear regression analysis to the relationship: A=Af(1−X1)+AbX1, where X1=QX2/[1+X2(Q−1)], where X2={P+KD+kE0−[(P+KD+kE0)^2−4PkE0]^1/2}/2P where A is measured anisotropy, Af is the anisotropy of free probe, Ab is the anisotropy of the probe-CK2α complex, Q is the ratio of fluorescence quantum yield of the probe-CK2α complex and the free probe, P is the concentration of the fluorescent probe, E0 is the nominal concentration of the kinase, k is the fraction of active kinase in enzyme preparation and KD is the dissociation constant of the probe-CK2α complex. Q value of 1.1 was calculated by dividing the total fluorescence intensity of the complex with the total fluorescence intensity of the free probe.

[3] = target: holoenzyme of protein kinase CK2 (CK2α + CK2β) (Homo sapiens, UniProt P68400); assay: biochemical
Procedure: The binding of the fluorescent probe to the holoenzyme of protein kinase CK2 was studied at 0.2 nM concentration of the probe, 2-fold dilutions of CK2α and 100 nM regulatory subunit of CK2 (CK2β) in a buffer containing 50 mM HEPES (pH 7.5), 150 mM NaCl, 5 mM DTT, 0.1 mM EDTA and 0.005% tween 20 in 20 μl volumes in 384-well microplate. […] The change in fluorescence anisotropy vs kinase concentration was plotted and KD-value was calculated by the application of nonlinear regression analysis to the relationship: A=Af(1−X1)+AbX1, where X1=QX2/[1+X2(Q−1)], where X2={P+KD+kE0−[(P+KD+kE0)^2−4PkE0]^1/2}/2P where A is measured anisotropy, Af is the anisotropy of free probe, Ab is the anisotropy of the probe-CK2 holoenzyme complex, Q is the ratio of fluorescence quantum yield of the probe-CK2 holoenzyme complex and the free probe, P is the concentration of the fluorescent probe, E0 is the nominal concentration of CK2α, k is the fraction of active kinase in enzyme preparation and KD is the dissociation constant of the probe-CK2 holoenzyme complex.

[4] = CK2α 0.8 nM, fluorescent probe VI 0.5 nM
[5] = fluorescence anisotropy, HEPES pH 7.5, 30° C., probe X also by time gated luminescence, read-out: KD of probe-CK2α complex
[6] = CK2α 2 nM, fluorescent probe VI 3 nM

Sequence of holoenzyme of protein kinase CK2 (CK2α + CK2β) (P68400 whole entry): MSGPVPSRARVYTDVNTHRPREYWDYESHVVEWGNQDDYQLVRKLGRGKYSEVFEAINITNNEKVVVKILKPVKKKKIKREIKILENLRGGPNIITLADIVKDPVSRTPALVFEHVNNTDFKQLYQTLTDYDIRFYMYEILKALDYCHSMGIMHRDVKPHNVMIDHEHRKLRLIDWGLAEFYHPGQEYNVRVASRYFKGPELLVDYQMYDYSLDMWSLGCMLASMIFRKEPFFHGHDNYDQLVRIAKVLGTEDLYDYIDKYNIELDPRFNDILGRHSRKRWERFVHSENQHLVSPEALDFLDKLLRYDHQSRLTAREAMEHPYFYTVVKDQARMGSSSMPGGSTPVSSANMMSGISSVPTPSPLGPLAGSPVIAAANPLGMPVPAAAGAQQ
Sequence of holoenzyme of protein kinase CK2 (CK2α + CK2β) (P67870 whole entry partner): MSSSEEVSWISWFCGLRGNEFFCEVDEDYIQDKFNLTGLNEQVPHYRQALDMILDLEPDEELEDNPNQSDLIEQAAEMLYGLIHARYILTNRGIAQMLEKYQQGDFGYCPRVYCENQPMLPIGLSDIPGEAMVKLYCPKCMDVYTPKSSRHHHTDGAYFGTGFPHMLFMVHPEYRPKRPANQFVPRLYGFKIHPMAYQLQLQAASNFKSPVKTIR

- IC50 [1, 4]: 390 nM
- Kd [1, 4]: 122 nM
Compound: TIBI-AcOH

Compound: CCN1/C(=C/C=C/C=C/C2=[N+](CC)c3ccc(S(=O)(=O)[O-])cc3C2(C)C)C(C)(CCCC(=O)NCCCC[C@H](NC(=O)[C@H](CC(=O)O)NC(=O)[C@H](CC(=O)O)NC(=O)[C@H](CC(=O)O)NC(=O)[C@H](CC(=O)O)NC(=O)[C@H](CC(=O)O)NC(=O)[C@@H](CC(=O)O)NC(=O)CCCCCCCn2cnc3c(I)c(I)c(I)c(I)c32)C(=O)O)c2cc(S(=O)(=O)O)ccc21 (stereo partly shown) [probe VIII]
- Kd [2, 5]: 0.4 nM

Compound: CN(C)c1ccc2c(-c3ccc(C(=O)NCCCC[C@H](NC(=O)[C@H](CC(=O)O)NC(=O)[C@H](CC(=O)O)NC(=O)[C@H](CC(=O)O)NC(=O)[C@H](CC(=O)O)NC(=O)[C@H](CC(=O)O)NC(=O)[C@@H](CC(=O)O)NC(=O)CCCCCCCn4cnc5c(Br)c(Br)c(Br)c(Br)c54)C(=O)O)cc3C(=O)[O-])c3ccc(=[N+](C)C)cc-3oc2c1 [probe VII] (X1-[dD]DDDDDK(X2)-OH)
- Kd [2, 5]: 0.4 nM

Compound: CCN1/C(=C/C=C/C=C/C2=[N+](CC)c3ccc(S(=O)(=O)[O-])cc3C2(C)C)C(C)(CCCC(=O)NCCCC[C@H](NC(=O)[C@H](CC(=O)O)NC(=O)[C@H](CC(=O)O)NC(=O)[C@H](CC(=O)O)NC(=O)[C@H](CC(=O)O)NC(=O)[C@H](CC(=O)O)NC(=O)[C@H](CC(=O)O)NC(=O)CCCCCCCCOc2nc3cc(C(=O)O)ccc3c3cnccc23)C(=O)O)c2cc(S(=O)(=O)O)ccc21 (stereo partly shown) [probe IX]
- Kd [2, 5]: 0.02 nM

Compound: CCN1/C(=C/C=C/C=C/C2=[N+](CC)c3ccc(S(=O)(=O)[O-])cc3C2(C)C)C(C)(CCCC(=O)NCCCC[C@H](NC(=O)[C@H](CC(=O)O)NC(=O)[C@H](CC(=O)O)NC(=O)[C@H](CC(=O)O)NC(=O)[C@H](CC(=O)O)NC(=O)[C@H](CC(=O)O)NC(=O)[C@@H](CC(=O)O)NC(=O)CCCCCCCn2ccc3ccc4n[se]nc4c32)C(=O)O)c2cc(S(=O)(=O)O)ccc21 (stereo partly shown) [probe X]
- Kd [2]: 10 nM

Compound: CCN1/C(=C/C=C/C=C/C2=[N+](CC)c3ccc(S(=O)(=O)[O-])cc3C2(C)C)C(C)(CCCC(=O)NCCCC[C@H](NC(=O)[C@H](CC(=O)O)NC(=O)[C@H](CC(=O)O)NC(=O)[C@H](CC(=O)O)NC(=O)[C@H](CC(=O)O)NC(=O)[C@H](CC(=O)O)NC(=O)[C@@H](CC(=O)O)NC(=O)CCCCCCCn2cnc3c(Br)c(Br)c(Br)c(Br)c32)C(=O)O)c2cc(S(=O)(=O)O)ccc21 (stereo partly shown) [probe VI]
- Kd [3]: 0.2 nM
- Kd [2, 5]: 0.4 nM

- IC50 [1, 6]: 11500 nM
- Kd [1, 6]: 1500 nM
Compound: TBBI-AcOH
